In patent publication EP4385979A1 (Grünenthal GmbH, priority 2022, dated 2024) one finds IC50 data, which are given here for eleven compounds.

SMILES strings stand for the structures. Some results are limits rather than exact numbers.

T1 sequence (Q9Y5Y9 whole entry): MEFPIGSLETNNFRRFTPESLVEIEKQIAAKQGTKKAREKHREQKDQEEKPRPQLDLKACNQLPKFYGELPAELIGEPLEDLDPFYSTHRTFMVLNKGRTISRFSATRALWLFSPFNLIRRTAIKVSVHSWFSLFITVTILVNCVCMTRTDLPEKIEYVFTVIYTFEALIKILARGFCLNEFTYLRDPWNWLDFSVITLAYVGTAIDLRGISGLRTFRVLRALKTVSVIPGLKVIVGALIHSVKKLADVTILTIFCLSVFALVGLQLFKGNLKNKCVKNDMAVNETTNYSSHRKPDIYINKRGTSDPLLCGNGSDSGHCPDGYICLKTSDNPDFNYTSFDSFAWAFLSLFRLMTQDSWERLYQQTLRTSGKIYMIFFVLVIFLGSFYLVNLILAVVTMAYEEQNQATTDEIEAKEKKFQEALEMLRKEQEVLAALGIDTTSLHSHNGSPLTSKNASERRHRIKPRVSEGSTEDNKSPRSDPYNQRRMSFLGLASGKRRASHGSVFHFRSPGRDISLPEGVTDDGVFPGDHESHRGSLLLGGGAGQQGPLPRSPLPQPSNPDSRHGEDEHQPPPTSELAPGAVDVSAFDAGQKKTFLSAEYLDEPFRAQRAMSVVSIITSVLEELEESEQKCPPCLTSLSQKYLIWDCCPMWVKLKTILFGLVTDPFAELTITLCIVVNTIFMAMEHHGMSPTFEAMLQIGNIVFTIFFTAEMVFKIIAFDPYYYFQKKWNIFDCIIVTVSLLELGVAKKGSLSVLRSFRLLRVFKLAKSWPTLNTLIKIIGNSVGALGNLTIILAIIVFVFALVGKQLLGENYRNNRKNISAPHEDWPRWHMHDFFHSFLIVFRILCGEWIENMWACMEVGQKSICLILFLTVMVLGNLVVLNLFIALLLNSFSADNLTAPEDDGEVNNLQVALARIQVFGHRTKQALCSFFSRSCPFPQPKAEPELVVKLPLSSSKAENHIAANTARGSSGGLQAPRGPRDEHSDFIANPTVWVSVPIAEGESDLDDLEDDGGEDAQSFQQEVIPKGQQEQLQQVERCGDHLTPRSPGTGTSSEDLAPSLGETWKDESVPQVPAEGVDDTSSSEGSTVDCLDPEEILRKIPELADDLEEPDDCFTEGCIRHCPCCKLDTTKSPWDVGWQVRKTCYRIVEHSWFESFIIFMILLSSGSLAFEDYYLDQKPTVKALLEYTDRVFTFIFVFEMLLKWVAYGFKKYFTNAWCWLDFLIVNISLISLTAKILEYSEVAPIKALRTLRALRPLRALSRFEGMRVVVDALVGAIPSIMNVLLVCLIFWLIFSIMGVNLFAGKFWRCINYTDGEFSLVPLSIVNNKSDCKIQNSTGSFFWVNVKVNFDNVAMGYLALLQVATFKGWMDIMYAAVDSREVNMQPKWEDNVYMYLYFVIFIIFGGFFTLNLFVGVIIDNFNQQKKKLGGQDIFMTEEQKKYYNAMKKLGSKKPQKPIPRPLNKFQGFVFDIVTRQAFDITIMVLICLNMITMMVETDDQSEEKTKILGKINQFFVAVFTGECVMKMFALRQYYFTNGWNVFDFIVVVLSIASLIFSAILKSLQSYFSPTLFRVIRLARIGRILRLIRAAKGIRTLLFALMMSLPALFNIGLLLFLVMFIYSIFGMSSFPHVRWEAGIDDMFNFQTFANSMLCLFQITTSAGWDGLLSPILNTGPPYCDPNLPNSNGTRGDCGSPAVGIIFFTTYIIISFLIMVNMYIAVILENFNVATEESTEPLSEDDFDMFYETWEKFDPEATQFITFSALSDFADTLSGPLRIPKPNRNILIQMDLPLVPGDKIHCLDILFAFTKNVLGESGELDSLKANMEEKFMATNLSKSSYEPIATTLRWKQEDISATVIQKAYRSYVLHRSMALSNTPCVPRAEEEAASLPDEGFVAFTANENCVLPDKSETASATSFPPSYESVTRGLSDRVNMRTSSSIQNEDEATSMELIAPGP

The assay concerns the target T1, human NaV1.8 (Homo sapiens, UniProt Q9Y5Y9).
T1 construct: expressed in transfected cells; host or cells: HEK
Briefly: Electrophysiology: voltage-clamp recordings, whole-cell patch clamp on Qube384 automated platform. Format: cell-based. Particulars: HEK-NaV1.8 (NM 006514.1) with b3 recombinant cell line, multi hole plates, ambient room temperature, read-out: Potency category (human NaV1.8 IC50). Here is the method:
Electrophysiology: Voltage-Clamp recordings
The following NaV1.8 recombinant cell line was used for recordings: HEK-NaV1.8 (NM 006514.1) with b3 (NM_018400.3).
Sodium currents were measured using the patch clamp technique in the whole-cell configuration using the Qube384 (Sophion A/S, Copenhagen, Denmark) automated voltage clamp platform. "Multi hole" plates were used for the cell line expressing NaV1.8 while "single hole" plates were used for the recombinant cell lines expressing the other subtypes. Appropriate filters (for minimum seal resistance and minimum current size) and series resistance compensation (for high quality sodium channel recordings) were applied. Data was collected at ambient room temperature.
The recording […] solution contained (in mM): NaCl 145 mM, KCl 4 mM, CaCl2 2 mM, MgCl2 1 mM, HEPES 10 mM, Glucose 10 mM, pH 7.4 (NaOH). The […] recording solution contained (in mM): CsF 120 mM, CsCl 20 mM, NaCl 10 mM, EGTA 10 mM, HEPES 10 mM, pH 7.2 (CsOH). Currents were recorded at 25 kHz sampling frequency and filtered at 5 kHz. Series resistance compensation was applied at 65%.
Vehicle (VEH) is the control condition where cells are exposed to 0.3 % DMSO without compound. All runs include VEH controls being exposed to the same voltage protocols to assess non-compound related phenomena such as run down and then used to isolate compound dependent effects on currents.
To check for state-dependence inhibition, the following voltage-sequence was applied every 20 seconds: From a resting membrane potential of-120 mV, the first test pulse (P1; 20 ms to -10 mV) was applied to check for channels in the Resting State followed by a brief recovery (20 ms to -120 mV), then holding the membrane voltage to V1/2 (4 seconds at voltage to obtain half the channel at Rest and half Inactivated) with a subsequent second test pulse (P2; 20 ms to -10 mV) to check for channels in the Inactivated State, followed by another brief recovery (20 ms to -120 mV) and a final third test pulse (P3; 20 ms to -10 mV) to check for recovered channels.
To check for frequency-dependent inhibition, a 10 Hz protocol and a 20 Hz protocol were applied; namely,
From a resting membrane potential of -120 mV, 40-pulses (10 ms to -10 mV) was applied at 10 Hz (at 100 ms between pulses) and then at 20 Hz (at 50 ms between pulses). Each parameter was recorded (P1, P2, P3, P40 from 10Hz and P40 from 20Hz) during a control period (lasting ~ 5 minutes) when establishing the baseline and during compound period (lasting ~ 12 minutes) when test compound (or vehicle) was applied. For each parameter, the value at the end of the compound period was normalized to the vehicle baseline; as follows Normalized Inhibition (NormCPD) = (CPD Valueend CPD period)/(VEH Valueend Control Period) [formula]
To adjust for any variance in the Na^+ current signal during the compound period (owing to cumulative inactivation independent of compound or shifts in biophysics over time), a dedicated segment of the recording wells in each 384 plate were dedicated to having only vehicle exposure. These vehicle-only recordings were used to correct for any apparent "run-up" or "run-down" in the experiment. Normalized Inhibition (NormVEH) = (VEH Valueend CPD period)/(VEH Valueend Control Period) [formula]
The adjusted inhibition was calculated as follows: % Inhibitioncorrected = 100 × (NormCPD −NormVEH)/(100−NormVEH) [formula]
Percent inhibition was determined and IC50 values were calculated using a 4 parameter logistic model within XLFit Software (IDBS, Boston MA): % Inhibitioncorrected = A + ((B−A))/((1 + (((x)/(C)))^D) [formula] where A and B are the maximal and minimum inhibition respectively, C is the IC50 concentration and D is the (Hill) slope.
For orientation: In patch-clamp work, channel activity is measured electrically.
Consider `CS(=O)(=O)c1cc(NC(=O)c2c(C(F)(F)F)c(C3CC3)nn2CC23CC(F)(C2)C3)ccn1` [Example 21, 3-cyclopropyl-1-((3-fluorobicyclo [1.1.1]pentan-1-yl)methyl)-N-(2-(methylsulfonyl)pyridin-4-yl)-4-(trifluoromethyl)-1H-pyrazole-5-carboxamide], for which the IC50 is not above 0.1 µM. The same measure for `CC12CC(Cn3nc(C4CC4)c(C(F)(F)F)c3C(=O)Nc3ccnc(S(C)(=O)=O)c3)(CO1)C2` [Example 23, 3-cyclopropyl-1-((1-methyl-2-oxabicyclo[2.1.1]hexan-4-yl)methyl)-N-(2-(methylsulfonyl)pyridin-4-yl)-4-(trifluoromethyl)-1H-pyrazole-5-carboxamide]: 0.1 to 1 µM. Regarding `CS(=O)(=O)c1cc(NC(=O)c2c(C(F)(F)F)c(C3CC3)nn2CC23CC(CO2)C3)ccn1` [Example 24, 1-((2-oxabicyclo[2.1.1]hexan-1-yl)methyl)-3-cyclopropyl-N-(2-(methylsulfonyl)pyridin-4-yl)-4-(trifluoromethyl)-1H-pyrazole-5-carboxamide], the IC50 was in the range of 0.1 to 1 µM.

Take `Cc1c(C(C)(F)F)nn(CC23CC(C(F)(F)F)(C2)C3)c1C(=O)Nc1ccnc(S(C)(=O)=O)c1` [Example 25, 3-(1,1-difluoroethyl)-4-methyl-N-(2-(methylsulfonyl)pyridin-4-yl)-1-((3-(trifluoromethyl)bicyclo[1.1.1]pentan-1yl)methyl)-1H-pyrazole-5-carboxamide]: the half-inhibitory concentration (IC50) was not above 0.1 µM.

Regarding `Cc1nn(CC23CC(C(F)(F)F)(C2)C3)c(C(=O)Nc2ccnc(S(C)(=O)=O)c2)c1C(F)(F)F` [Example 26, 3-methyl-N-(2-(methylsulfonyl)pyridin-4-yl)-4-(trifluoromethyl)-1-((3-(trifluoromethyl)bicyclo[1.1.1]pentan-1yl)methyl)-1H-pyrazole-5-carboxamide], the IC50 fell in the range of 0.1 to 1 µM. In the case of `Cc1c(C(F)(F)F)nn(CC23CC(C(F)(F)F)(C2)C3)c1C(=O)Nc1ccnc(S(C)(=O)=O)c1` [Example 27, 4-methyl-N-(2-(methylsulfonyl)pyridin-4-yl)-3-(trifluoromethyl)-1-((3-(trifluoromethyl)bicyclo[1.1.1]pentan-1yl)methyl)-1H-pyrazole-5-carboxamide], the IC50 was in the range of 0.1 to 1 µM. As to `CS(=O)(=O)c1cc(NC(=O)c2c(C(F)(F)F)c(C3CC3)nn2CC23CC(C(F)(F)F)(C2)C3)ccn1` [Example 28, 3-cyclopropyl-N-(2-(methylsulfonyl)pyridin-4-yl)-4-(trifluoromethyl)-1-((3-(trifluoromethyl)bicyclo[1.1.1]pentan-1yl)methyl)-1H-pyrazole-5-carboxamide], the IC50 was not above 0.1 µM. Then `NS(=O)(=O)c1cccc(NC(=O)c2c(C(F)(F)F)cnn2CC23CC(CO2)C3)c1` [Example 30, 1-((2-oxabicyclo[2.1.1]hexan-1-yl)methyl)-N-(3-sulfamoylphenyl)-4-(trifluoromethyl)-1H-pyrazole-5-carboxamide], with 1 to 10 µM; and `CC12CC(Cn3ncc(C(F)(F)F)c3C(=O)Nc3cccc(S(N)(=O)=O)c3)(CO1)C2` [Example 31, 1-((1-methyl-2-oxabicyclo[2.1.1]hexan-4-yl)methyl)-N-(3-sulfamoylphenyl)-4-(trifluoromethyl)-1H-pyrazole-5-carboxamide], with 1 to 10 µM; and `NS(=O)(=O)c1cccc(NC(=O)c2c(C(F)(F)F)cnn2CC23CC(C2)C3)c1` [Example 32, 1-(bicyclo [1.1.1]pentan-1-ylmethyl)-N-(3-sulfamoylphenyl)-4-(trifluoromethyl)-1H-pyrazole-5-carboxamide], with 0.1 to 1 µM.

For the compound `Cc1nn(CC23CC(CO2)C3)c(C(=O)Nc2cccc(S(N)(=O)=O)c2)c1C(F)(F)F` [Example 33, 1-((2-oxabicyclo [2.1.1]hexan-1-yl)methyl)-3-methyl-N-(3-sulfamoylphenyl)-4-(trifluoromethyl)-1H-pyrazole-5-carboxamide], the IC50 was 1 to 10 µM.

As a reminder, the IC50 is the concentration that gives 50% inhibition.
